Source: patent US11564394B2, “Distorted gold (I)-phosphine complexes and methods for use as antifungal agents” (University of Kentucky Research Foundation, priority 2019, dated 2023)
Values after ≈ are worked out from the molar mass of the structure shown.

How the values were obtained:
[1] = test system: C. auris AR Bank # 0385 (strain IV); experiment: MIC determination (broth microdilution); format: cell-based, Candida auris; details: strain IV = C. auris AR Bank # 0385; MIC-0; 48 h (CAS read at 24 h)
[2] = test system: C. albicans ATCC MYA-1003(R) (strain A); format: cell-based, Candida albicans; details: strain A = C. albicans ATCC MYA-1003(R); MIC-0; 48 h at 35° C.
[3] = test system: C. neoformans CN3 (strain P); experiment: MIC determination (broth microdilution); format: cell-based, Cryptococcus neoformans; details: MIC-0, 72 h at 35° C.
[4] = test system: C. neoformans CN1 (strain N); experiment: MIC determination (broth microdilution); format: cell-based, Cryptococcus neoformans; details: MIC-0, 72 h at 35° C.
[5] = test system: C. glabrata ATCC 2001 (strain H); experiment: MIC determination (broth microdilution); format: cell-based, Candida glabrata; details: strain H = C. glabrata ATCC 2001; MIC-0; 48 h at 35° C.
[6] = test system: C. albicans ATCC 10231 (strain B) biofilm; experiment: Prevention of biofilm formation (XTT); format: cell-based, Candida albicans; details: treated at 0 h, 90% decrease in metabolic activity (XTT)
[7] = test system: C. auris AR Bank # 0390 (strain L); experiment: MIC determination (broth microdilution); format: cell-based, Candida auris; details: strain L = C. auris AR Bank # 0390; MIC-0; 48 h (CAS read at 24 h); Table 1 row printed without letter, below L; also in Table 2
[8] = test system: C. auris AR Bank # 0383 (strain III); experiment: MIC determination (broth microdilution); format: cell-based, Candida auris; details: strain III = C. auris AR Bank # 0383; MIC-0; 48 h (CAS read at 24 h)
[9] = test system: C. auris AR Bank # 0388 (strain VII); experiment: MIC determination (broth microdilution); format: cell-based, Candida auris; details: strain VII = C. auris AR Bank # 0388; MIC-0; 48 h (CAS read at 24 h)
[10] = test system: C. auris AR Bank # 0390 (strain L) pre-formed biofilm; format: cell-based, Candida auris; details: biofilm treated at 24 h, XTT
[11] = test system: C. albicans ATCC 10231 (strain B) pre-formed biofilm; experiment: Disruption of pre-formed biofilm (XTT); format: cell-based, Candida albicans; details: for Pre-formed biofilm SMIC90: biofilm treated at 24 h, XTT
[12] = test system: C. albicans ATCC MYA-2310(S) (strain D); experiment: MIC determination (broth microdilution); format: cell-based, Candida albicans; details: strain D = C. albicans ATCC MYA-2310(S); MIC-0; 48 h; listed as printed beside letter E
[13] = test system: C. albicans ATCC MYA-2876(S) (strain E); experiment: MIC determination (broth microdilution); format: cell-based, Candida albicans; details: strain E = C. albicans ATCC MYA-2876(S); MIC-0; 48 h; listed as printed beside letter F
[14] = test system: C. albicans ATCC 10231(R) (strain B); format: cell-based, Candida albicans; details: strain B = C. albicans ATCC 10231(R); MIC-0; 48 h; listed as split over r8 and r9 (r9 printed beside letter C)
[15] = test system: A. flavus ATCC MYA-3631 (strain S); experiment: MIC determination (broth microdilution); format: cell-based, Aspergillus flavus; details: strain S = A. flavus ATCC MYA-3631; MIC-0; 72 h at 35° C.
[16] = test system: C. albicans ATCC MYA-1237(R) (strain C); format: cell-based, Candida albicans; details: strain C = C. albicans ATCC MYA-1237(R); MIC-0; 48 h; listed as printed beside letter D
[17] = test system: A. nidulans ATCC 38163 (strain Q); experiment: MIC determination (broth microdilution); format: cell-based, Aspergillus nidulans; details: strain Q = A. nidulans ATCC 38163; MIC-0; 72 h at 35° C.
A549 = experiment: Mammalian cytotoxicity assay (resazurin cell viability); format: cell-based; details: A549 (human lung carcinoma); read-out: IC50 for mammalian cell lines
Excerpt: (§1) For cytotoxicity assays, the human embryonic kidney cell line (HEK-293) was purchased from the ATCC. The human bronchial epithelial cell line (BEAS-2B), the human lung carcinoma cell line (A549), and the mouse macrophage cell line (J774A.1) were generous gifts from Prof. David K. Orren (University of Kentucky, Lexington, Ky.), Prof. Markos Leggas (University of Kentucky, Lexington, Ky.), and Prof. David J. Feola (University of Kentucky, Lexington, Ky.), respectively. A549, HEK-293, and BEAS-2B cells were cultured in Dulbecco's Modified Eagle's Medium (DMEM, catalog #VWRL0100, VWR, Chicago, Ill.) supplemented with 10% fetal bovine serum (FBS; from ATCC) and 1% penicillin/streptomycin (from ATCC) at 37° C. with 5% CO2. The J774A.1 cells were cultured in DMEM (catalog #30-2002, ATCC, Manassas, Va.), which was also supplemented with FBS and antibiotics and grown at 37° C. with 5% CO2.
(§2) To examine whether the compounds are safe for human cells, cytotoxicity assays were done against four mammalian cell lines: HEK-293, A549, BEAS-2B, and J774A.1 cells. […] HEK-293 and J774A.1 cells were plated at 1×10^4 cells/mL while A549 and BEAS-2B were plated at 3×10^3 cells/mL. Compounds were tested in concentrations ranging from 0.06 to 15.6 μg/mL with final concentration of DMSO at 0.5% (FIG. 4A-D).

BEAS-2B = experiment: as above; format: cell-based; details: BEAS-2B (human bronchial epithelial); read-out: IC50 for mammalian cell lines
Excerpt: as §1, §2

J774A.1 = experiment: as above; format: cell-based; details: J774A.1 (murine macrophage); read-out: IC50 for mammalian cell lines
Excerpt: as §1, §2

HEK-293 = experiment: as above; format: cell-based; details: HEK-293 (human embryonic kidney); read-out: IC50 for mammalian cell lines
Excerpt: as §1, §2

Structure (SMILES)	MIC [2]	MIC (in parentheses) [2]	MIC [3]	MIC (in parentheses) [3]	MIC [4]	MIC (in parentheses) [4]	MIC [5]	MIC (in parentheses) [5]	Biofilm prevention SMIC90 [6]	MIC [7]	MIC (in parentheses) [7]	Pre-formed biofilm SMIC90 [10]	Pre-formed biofilm SMIC90 [11]	MIC [12]	MIC (in parentheses) [12]	MIC [13]	MIC (in parentheses) [13]	MIC [14]	MIC (in parentheses) [14]	MIC [15]	also measured
C[C@@H]1[C@H](O)[C@@H](C)/C=C/C=C/C=C/C=C/C=C/C=C/C=C/[C@H](O[C@@H]2O[C@H](C)[C@@H](O)[C@H](N)[C@@H]2O)C[C@@H]2O[C@](O)(C[C@@H](O)C[C@@H](O)[C@H](O)CC[C@@H](O)C[C@@H](O)CC(=O)O[C@H]1C)C[C@H](O)[C@H]2C(=O)O [AmB, amphotericin B, reference compound]	0.98 µg/mL (≈ 1.06 µM)	1.1 µM (≈ 1.02 µg/mL)	0.98 µg/mL (≈ 1.06 µM)	1.1 µM (≈ 1.02 µg/mL)	0.98 µg/mL (≈ 1.06 µM)	1.1 µM (≈ 1.02 µg/mL)	3.9 µg/mL (≈ 4.22 µM)	4.2 µM (≈ 3.88 µg/mL)	0.98 µg/mL	1.95 µg/mL (≈ 2.11 µM)	2.1 µM (≈ 1.94 µg/mL)	7.8 µg/mL	31.3 µg/mL	7.8 µg/mL (≈ 8.44 µM)	8.4 µM (≈ 7.76 µg/mL)	3.9 µg/mL (≈ 4.22 µM)	4.2 µM (≈ 3.88 µg/mL)	1.95 µg/mL (≈ 2.11 µM)	2.1 µM (≈ 1.94 µg/mL)	31.3 µg/mL (≈ 33.9 µM)	MIC [1]: 1.95 µg/mL (≈ 2.11 µM); MIC (in parentheses) [1]: 2.1 µM (≈ 1.94 µg/mL); MIC [8]: 1.95 µg/mL (≈ 2.11 µM); MIC (in parentheses) [8]: 2.1 µM (≈ 1.94 µg/mL); MIC [9]: 1.95 µg/mL (≈ 2.11 µM); MIC (in parentheses) [9]: 2.1 µM (≈ 1.94 µg/mL); SMIC90 of pre-formed biofilm relative to MIC with planktonic cells [11]: 32 fold; MIC (in parentheses) [15]: 33.8 µM (≈ 31.2 µg/mL); MIC [16]: 3.9 µg/mL (≈ 4.22 µM); MIC (in parentheses) [16]: 4.2 µM (≈ 3.88 µg/mL)
CC(=O)OC[C@H]1O[C@@H]([S-])[C@H](OC(C)=O)[C@@H](OC(C)=O)[C@@H]1OC(C)=O.CCP(CC)CC.[Au+] [Auranofin, auranofin, reference compound]	> 31.3 µg/mL	> 46.1 µM	3.9 µg/mL	5.7 µM	3.9 µg/mL	5.7 µM	> 31.3 µg/mL	> 46.1 µM	7.8 µg/mL	> 31.3 µg/mL	> 46.1 µM	>31.3 µg/mL	7.8 µg/mL	> 31.3 µg/mL	> 46.1 µM	> 31.3 µg/mL	> 46.1 µM	> 31.3 µg/mL	> 46.1 µM	> 31.3 µg/mL	MIC [17]: 3.9 µg/mL; MIC (in parentheses) [17]: 5.7 µM; IC50 (A549): 0.5 ± 0.1 µM; IC50 (BEAS-2B): 1.3 ± 0.1 µM; IC50 (J774A.1): 16.2 µM; IC50 (HEK-293): 3 ± 0.2 µM; Pre-formed biofilm SMIC90 ([11]; listed as auranofin): the same SMIC90 as compound 4; MIC (in parentheses) [15]: > 46.1 µM; MIC [16]: > 31.3 µg/mL; MIC (in parentheses) [16]: > 46.1 µM
